Structures can show the parent of a compound that is named as a salt.
What was measured:
[1] = Chromatographic purity (vancomycin B and impurities), analytical HPLC method of the USP vancomycin monograph; assay type: physicochemical
Protocol: (§1) Batches for stability testing were made using the spray dried formulation of vancomycin HCl (15% by weight), PEG-400 (3% by weight), mannitol (3% by weight) in WFI, with the API sourced from Abbott Laboratories (North Chicago, Ill.). Spray dried batches were stored at 25° C./60% Relative Humidity (RH), 30° C./60% RH, and 40° C./75% RH for three months. The stability data on moisture by Karl Fischer, pH (of the reconstituted solution), reconstitution time and chromatographic purity are presented in Table 7. The chromatographic purity was examined using the analytical HPLC method described in the current USP (United States Pharmacopeia) monograph for vancomycin. The test results for the API lot used to make the spray dried product were also listed for comparison.

[2] = Stability testing of spray dried batches at 25° C./60% RH, 30° C./60% RH, 40° C./75% RH (moisture by Karl Fischer, pH of reconstituted solution, reconstitution time, chromatographic purity); assay type: physicochemical; conditions: Initial
Protocol: as §1
The chromatographic purity of vancomycin B for all samples tested in this study were within USP specifications. All samples were stored at the accelerated conditions of 40° C./75% RH for 3 months and met USP criterion for vancomycin B by chromatographic purity (NLT 80% vancomycin B).

SMILES | Other ([1]; Table 8, other impurities) [%] | N-Demethylvancomycin ([1]; Table 8, tested for impurities) [%] | Vancomycin B ([1]; Table 8, tested for impurities) [%] | % Vancomycin B [2] [%]
CN[C@H](CC(C)C)C(=O)N[C@H]1C(=O)N[C@@H](CC(N)=O)C(=O)N[C@H]2C(=O)N[C@H]3C(=O)N[C@H](C(=O)N[C@H](C(=O)O)c4cc(O)cc(O)c4-c4cc3ccc4O)[C@H](O)c3ccc(c(Cl)c3)Oc3cc2cc(c3O[C@@H]2O[C@H](CO)[C@@H](O)[C@H](O)[C@H]2O[C@H]2C[C@](C)(N)[C@H](O)[C@H](C)O2)Oc2ccc(cc2Cl)[C@H]1O [API, Vancomycin Hydrochloride] | 4.5 | 0.6 | 94.9 | –
CN[C@H](CC(C)C)C(=O)N[C@H]1C(=O)N[C@@H](CC(N)=O)C(=O)N[C@H]2C(=O)N[C@H]3C(=O)N[C@H](C(=O)N[C@H](C(=O)O)c4cc(O)cc(O)c4-c4cc3ccc4O)[C@H](O)c3ccc(c(Cl)c3)Oc3cc2cc(c3O[C@@H]2O[C@H](CO)[C@@H](O)[C@H](O)[C@H]2O[C@H]2C[C@](C)(N)[C@H](O)[C@H](C)O2)Oc2ccc(cc2Cl)[C@H]1O [API Lot 09097619, Vancomycin HCl] | – | – | – | 91.9

— patent publication US9763997B2, “Spray drying vancomycin” (Hospira, Inc., priority 2011, dated 2017)
